Laboratory results reported in ChEMBL document CHEMBL1201862, “PubChem BioAssay data set” (2004).
The source made the active and inactive calls.

Key:
[1] = target: T1, Scavenger receptor class B member 1 (Mus musculus, UniProt Q61009); assay: mouse SR-BI DiI-HDL uptake blockers – ldlA[mSR-BI] cells, fluorescence, cherry pick, dose response (AID 493194); type: functional, cell-based;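 also: cellular uptake of fluorescent DiI-labeled HDL measured as cell fluorescence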
T1 sequence (Q61009 whole entry): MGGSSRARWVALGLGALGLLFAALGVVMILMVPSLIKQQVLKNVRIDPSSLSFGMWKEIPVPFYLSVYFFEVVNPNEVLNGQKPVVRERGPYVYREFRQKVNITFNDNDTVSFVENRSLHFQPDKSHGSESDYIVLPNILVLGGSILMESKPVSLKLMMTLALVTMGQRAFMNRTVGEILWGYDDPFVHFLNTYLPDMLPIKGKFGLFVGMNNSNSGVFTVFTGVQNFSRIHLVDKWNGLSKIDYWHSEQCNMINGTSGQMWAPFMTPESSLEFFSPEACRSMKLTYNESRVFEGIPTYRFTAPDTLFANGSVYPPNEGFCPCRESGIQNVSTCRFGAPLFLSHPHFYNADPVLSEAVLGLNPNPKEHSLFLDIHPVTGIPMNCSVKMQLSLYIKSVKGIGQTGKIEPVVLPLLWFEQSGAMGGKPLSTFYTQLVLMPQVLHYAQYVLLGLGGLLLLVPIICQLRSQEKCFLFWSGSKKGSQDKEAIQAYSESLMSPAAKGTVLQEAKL

[2] = THP-1 cell cytotoxicity, dose response, cytotoxicity control for non-replicating M. tuberculosis project (AID 489025); type: functional
[3] = HepG2 cell cytotoxicity, dose response, cytotoxicity control for non-replicating M. tuberculosis project (AID 489018); type: functional; details: Mycobacterium tuberculosis
[4] = Vero E6 cell cytotoxicity, dose response, cytotoxicity control for non-replicating M. tuberculosis project, secondary assay (AID 492998); type: functional, VeroE6; details: Vero C1008
[5] = cells; type: functional
[6] = system: INS1; assay: INS-1E survival protection against cytokine death – cell-based, luminescence, retest, dose response (AID 449756); type: functional; details: Rattus norvegicus;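 also: cell death triggered by IL-1 beta plus TNF-alpha plus IFN-gamma mixture; protective hits raise ATP signal compared with cytokine alone wells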
[7] = target: Kallikrein-7 (Homo sapiens, UniProt P49862); assay: Fluorescence Intensity-based biochemical primary high throughput dose response assay to identify activators of kallikrein-7 (K7) zymogen.
[8] = target: Induced myeloid leukemia cell differentiation protein Mcl-1 (Homo sapiens, UniProt Q07820); type: functional
[9] = target: Paired box protein Pax-8 (Homo sapiens, UniProt Q06710); assay: PAX8 transcriptional activity inhibition in RMG-I – RMG-I cells, luciferase, cherry-pick, dose response (AID 687027); type: functional, cell-based;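 also: luciferase reporter driven by Pax8 target thyroperoxidase promoter measured by SteadyGlo luminescence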
[10] = A549 cell cytotoxicity, dose response, cytotoxicity control, plate reader, cherry-pick, antagonist series (AID 743412); type: functional, cell-based
[11] = toxicity toward HepG2 liver cells – cell-based, plate reader, cherry-pick, antagonist series, cytotoxicity control, dose response (AID 743416); type: functional
[12] = blockers of bursicon-stimulated LGR2 cAMP reporter – cell-based, HEK293, CRE-luciferase reporter, cherry pick, set 2, dose response (AID 743343); type: functional;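 also: transfected cells were stimulated with diluted bursicon conditioned medium after compound addition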
[13] = blockade of melanocortin 4 receptor signaling – cell-based, plate reader, cherry pick, counter-screen for LGR2 antagonist project, dose response (AID 743444); type: functional;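 also: transfected HEK 293 cells stimulated with alpha-MSH peptide; potency of inhibitors of the alpha-MSH evoked signal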
[14] = viability loss in HEK293 cells – cell-based, plate reader, cherry-picked samples, cytotoxicity control, dose response (AID 743446); type: functional
[15] = system: Streptococcus sp. 'group A'; assay: Streptococcus pyogenes SK(-)GAS viability under kanamycin – luminescence, BacTiterGlo, confirmation, counter-screen for streptokinase expression inhibitor project, dose response (AID 1900); type: functional, organism-based
[16] = viability of PTEN-deleted HCT116 cells – cell-based, HCT116 PTEN knockout, dose response (AID 1047); type: functional;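 also: HCT116 colon tumor cells with PTEN knocked out; cells exposed to compound for 60 hours before readout; potency for loss of cell viability measured by luminescence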
[17] = viability of HCT116 lacking mutant beta-catenin – cell-based, human colon tumor, dose response (AID 1045); type: functional;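 also: HCT116 colon tumor cells with beta catenin knocked out; cells exposed to compound for 60 hours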
[18] = system: Streptococcus; assay: GAS UMAA2166 growth inhibition – luminescence, BacTiterGlo, counter-screen for streptokinase expression inhibitor project, dose response (AID 1915); type: functional, organism-based;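 also: potency for reduction of bacterial viability or growth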
[19] = Luminescence Cell-Based Dose Retest to Confirm Inhibitors of Cancer Stem Cells. [Related pubchem assays (depositor defined):AID2717, AID2721]; type: functional, Homo sapiens; details: Homo sapiens
[20] = target: T2, X-box-binding protein 1 (Homo sapiens, UniProt P17861); type: functional, Cricetulus griseus;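 also: confirmatory dose-response counter-screen serving a CHOP assay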
T2 sequence (P17861 whole entry): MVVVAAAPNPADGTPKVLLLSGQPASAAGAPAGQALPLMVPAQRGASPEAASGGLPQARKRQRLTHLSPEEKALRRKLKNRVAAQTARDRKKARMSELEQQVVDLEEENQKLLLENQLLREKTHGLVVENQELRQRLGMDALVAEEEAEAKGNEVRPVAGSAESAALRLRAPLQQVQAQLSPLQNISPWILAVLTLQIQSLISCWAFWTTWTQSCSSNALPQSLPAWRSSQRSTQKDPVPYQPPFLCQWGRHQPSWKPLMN

[21] = target: Voltage-gated N-type calcium channel alpha-1B subunit/Amyloid beta A4 precursor protein-binding family A member 1 (Homo sapiens, UniProt Q00975+Q02410); assay: disruptors of Mint-PDZ/N-type channel peptide interaction – biochemical, HTRF, SAR follow-up (AID 2489); type: functional
Sequence of Voltage-gated N-type calcium channel alpha-1B subunit/Amyloid beta A4 precursor protein-binding family A member 1 (Q00975 whole entry): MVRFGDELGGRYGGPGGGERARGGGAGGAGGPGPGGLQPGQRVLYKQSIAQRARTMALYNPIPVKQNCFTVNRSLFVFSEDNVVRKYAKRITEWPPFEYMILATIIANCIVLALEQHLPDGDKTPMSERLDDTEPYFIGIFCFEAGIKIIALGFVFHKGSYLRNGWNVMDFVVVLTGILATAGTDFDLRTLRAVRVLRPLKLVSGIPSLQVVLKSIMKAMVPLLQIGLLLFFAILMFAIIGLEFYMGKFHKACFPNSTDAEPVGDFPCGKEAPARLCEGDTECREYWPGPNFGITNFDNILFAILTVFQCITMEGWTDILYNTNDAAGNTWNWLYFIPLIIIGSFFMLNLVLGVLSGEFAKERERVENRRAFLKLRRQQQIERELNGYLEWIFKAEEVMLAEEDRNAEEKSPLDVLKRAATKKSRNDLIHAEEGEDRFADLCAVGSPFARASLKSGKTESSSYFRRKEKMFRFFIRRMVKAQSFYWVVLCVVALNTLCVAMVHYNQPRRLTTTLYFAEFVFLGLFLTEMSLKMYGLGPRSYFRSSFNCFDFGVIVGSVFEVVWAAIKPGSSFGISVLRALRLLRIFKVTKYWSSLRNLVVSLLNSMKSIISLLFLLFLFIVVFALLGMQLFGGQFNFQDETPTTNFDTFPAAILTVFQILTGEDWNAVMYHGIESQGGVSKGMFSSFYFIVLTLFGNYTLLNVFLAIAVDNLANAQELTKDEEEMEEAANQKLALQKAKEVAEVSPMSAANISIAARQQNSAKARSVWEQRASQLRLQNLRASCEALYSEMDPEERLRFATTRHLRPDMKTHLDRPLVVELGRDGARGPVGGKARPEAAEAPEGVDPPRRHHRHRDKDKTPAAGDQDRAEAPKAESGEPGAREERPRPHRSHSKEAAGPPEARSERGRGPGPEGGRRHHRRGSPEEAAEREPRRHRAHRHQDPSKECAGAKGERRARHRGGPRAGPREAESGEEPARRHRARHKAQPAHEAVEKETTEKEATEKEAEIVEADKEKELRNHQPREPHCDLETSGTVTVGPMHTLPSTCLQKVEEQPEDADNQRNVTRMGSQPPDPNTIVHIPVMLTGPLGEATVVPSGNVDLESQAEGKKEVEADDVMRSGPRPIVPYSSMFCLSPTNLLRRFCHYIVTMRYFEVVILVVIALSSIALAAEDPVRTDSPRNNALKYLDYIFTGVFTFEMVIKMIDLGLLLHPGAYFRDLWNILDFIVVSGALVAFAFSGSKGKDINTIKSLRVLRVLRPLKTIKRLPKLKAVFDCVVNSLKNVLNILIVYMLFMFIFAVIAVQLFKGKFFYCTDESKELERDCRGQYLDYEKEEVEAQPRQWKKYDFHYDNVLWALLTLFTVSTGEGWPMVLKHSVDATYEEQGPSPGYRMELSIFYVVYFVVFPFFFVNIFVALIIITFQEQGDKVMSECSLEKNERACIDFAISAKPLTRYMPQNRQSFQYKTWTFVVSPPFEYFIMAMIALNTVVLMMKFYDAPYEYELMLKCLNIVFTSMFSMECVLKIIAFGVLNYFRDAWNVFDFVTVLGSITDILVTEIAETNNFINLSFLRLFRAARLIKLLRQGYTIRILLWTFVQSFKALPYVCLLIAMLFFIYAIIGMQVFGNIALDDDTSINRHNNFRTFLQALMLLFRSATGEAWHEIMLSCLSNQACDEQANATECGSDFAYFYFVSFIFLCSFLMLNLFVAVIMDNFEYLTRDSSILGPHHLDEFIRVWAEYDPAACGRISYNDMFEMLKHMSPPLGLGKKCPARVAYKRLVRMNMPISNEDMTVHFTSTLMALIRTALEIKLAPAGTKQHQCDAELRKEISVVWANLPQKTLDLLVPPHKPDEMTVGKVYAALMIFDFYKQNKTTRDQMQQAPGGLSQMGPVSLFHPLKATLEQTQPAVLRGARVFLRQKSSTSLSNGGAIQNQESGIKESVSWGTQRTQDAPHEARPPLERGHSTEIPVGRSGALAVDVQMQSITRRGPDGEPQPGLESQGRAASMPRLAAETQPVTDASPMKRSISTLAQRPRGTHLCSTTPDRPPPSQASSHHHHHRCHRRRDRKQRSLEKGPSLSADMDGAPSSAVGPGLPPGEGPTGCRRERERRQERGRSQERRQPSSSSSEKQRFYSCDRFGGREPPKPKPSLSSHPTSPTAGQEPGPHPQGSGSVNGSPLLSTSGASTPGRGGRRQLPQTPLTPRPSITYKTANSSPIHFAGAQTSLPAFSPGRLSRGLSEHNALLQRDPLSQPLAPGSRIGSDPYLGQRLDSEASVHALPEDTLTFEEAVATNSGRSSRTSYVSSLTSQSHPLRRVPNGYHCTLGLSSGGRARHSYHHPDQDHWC
Sequence of Voltage-gated N-type calcium channel alpha-1B subunit/Amyloid beta A4 precursor protein-binding family A member 1 (Q02410 whole entry): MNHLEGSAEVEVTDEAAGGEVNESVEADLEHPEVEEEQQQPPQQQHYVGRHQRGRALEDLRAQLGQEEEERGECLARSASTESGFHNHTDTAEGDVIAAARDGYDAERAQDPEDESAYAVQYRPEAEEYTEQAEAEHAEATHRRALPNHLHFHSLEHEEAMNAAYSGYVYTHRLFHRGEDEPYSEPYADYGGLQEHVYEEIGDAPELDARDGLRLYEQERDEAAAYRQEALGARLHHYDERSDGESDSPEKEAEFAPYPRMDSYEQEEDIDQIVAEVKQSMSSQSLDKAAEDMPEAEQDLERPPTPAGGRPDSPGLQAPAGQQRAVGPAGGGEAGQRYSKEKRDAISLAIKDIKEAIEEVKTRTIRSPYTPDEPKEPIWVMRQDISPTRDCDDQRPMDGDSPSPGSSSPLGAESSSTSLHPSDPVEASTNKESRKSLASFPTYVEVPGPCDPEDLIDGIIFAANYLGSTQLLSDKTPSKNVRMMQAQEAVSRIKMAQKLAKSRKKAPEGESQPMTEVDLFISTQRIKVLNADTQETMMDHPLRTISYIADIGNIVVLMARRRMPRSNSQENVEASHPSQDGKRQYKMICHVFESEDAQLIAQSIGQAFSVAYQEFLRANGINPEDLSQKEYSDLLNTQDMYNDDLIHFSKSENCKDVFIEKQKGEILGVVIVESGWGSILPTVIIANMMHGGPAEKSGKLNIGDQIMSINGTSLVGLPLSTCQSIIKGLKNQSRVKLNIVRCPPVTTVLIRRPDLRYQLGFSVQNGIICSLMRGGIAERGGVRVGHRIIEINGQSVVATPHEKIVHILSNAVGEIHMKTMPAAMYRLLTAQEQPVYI

Sequence of Paired box protein Pax-8 (Q06710 whole entry): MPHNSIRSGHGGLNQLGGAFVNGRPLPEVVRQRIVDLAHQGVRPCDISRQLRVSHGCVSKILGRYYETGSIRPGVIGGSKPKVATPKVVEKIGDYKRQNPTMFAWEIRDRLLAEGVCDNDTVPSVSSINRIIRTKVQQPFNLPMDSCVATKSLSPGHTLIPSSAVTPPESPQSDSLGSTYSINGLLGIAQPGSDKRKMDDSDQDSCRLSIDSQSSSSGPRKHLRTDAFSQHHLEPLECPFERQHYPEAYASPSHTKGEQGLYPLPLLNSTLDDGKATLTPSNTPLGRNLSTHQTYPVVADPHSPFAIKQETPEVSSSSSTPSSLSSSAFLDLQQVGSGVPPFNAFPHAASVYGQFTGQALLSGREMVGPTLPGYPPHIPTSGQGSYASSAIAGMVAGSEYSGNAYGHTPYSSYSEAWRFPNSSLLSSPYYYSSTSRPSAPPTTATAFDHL
Sequence of Kallikrein-7 (P49862 whole entry): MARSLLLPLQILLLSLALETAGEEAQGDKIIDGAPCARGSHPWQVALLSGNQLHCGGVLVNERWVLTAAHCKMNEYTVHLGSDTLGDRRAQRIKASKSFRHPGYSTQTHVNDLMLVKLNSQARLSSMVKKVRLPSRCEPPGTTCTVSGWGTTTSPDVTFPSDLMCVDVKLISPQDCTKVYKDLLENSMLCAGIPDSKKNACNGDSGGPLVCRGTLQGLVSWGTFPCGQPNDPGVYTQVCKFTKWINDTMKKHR
Sequence of Induced myeloid leukemia cell differentiation protein Mcl-1 (Q07820 whole entry): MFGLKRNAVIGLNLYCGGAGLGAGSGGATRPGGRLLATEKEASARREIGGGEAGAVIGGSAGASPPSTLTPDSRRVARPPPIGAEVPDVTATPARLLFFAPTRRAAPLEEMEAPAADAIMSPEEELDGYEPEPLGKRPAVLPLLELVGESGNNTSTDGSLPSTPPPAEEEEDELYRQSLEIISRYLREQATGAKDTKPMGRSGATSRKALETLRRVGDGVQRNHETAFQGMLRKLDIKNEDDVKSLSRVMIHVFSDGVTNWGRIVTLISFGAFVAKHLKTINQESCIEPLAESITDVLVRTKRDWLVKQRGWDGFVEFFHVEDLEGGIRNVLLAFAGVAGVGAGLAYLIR

**Q.** Which AC50 [1] does the source give for `CCOc1ccc(NC(=O)CN2CCN(CC(=O)Nc3cc(OC)cc(OC)c3)CC2)cc1` here?
**A.** The AC50 was 0.414 µM (active).

**Q.** Which results are given for `Cc1cc(N2CCC(C)CC2)nc(NCc2ccccc2)n1`?
**A.** CC50 [2]: 13.4 µM (active); CC50 [3]: > 20 µM (active); CC50 [4]: > 20 µM (active); IC50 [5]: 45.4 µM (active); AC50 [6]: 5.93 µM (active)

**Q.** For `CCC(=O)N1CCc2cc(-c3csc(NC(=O)c4ccco4)n3)ccc21`, which AC50 [1] is on record?
**A.** Its AC50 is 0.109 µM (active).

**Q.** What about the EC50 [7] of the same molecule?
**A.** Its EC50 is 10.5 µM (inactive).

**Q.** With `O=C(Nc1cccc(Cl)c1)Nc1nnc(-c2ccncc2)s1` as the molecule, how does the IC50 [8] read?
**A.** Its IC50 is 3.12 µM (active).

**Q.** What about the CC50 [2] of the same molecule?
**A.** Its CC50 is 6.34 µM (active).

**Q.** What about the CC50 [3] of the same molecule?
**A.** Its CC50 is 9.96 µM (active).

**Q.** And the CC50 [4]?
**A.** The CC50 was > 20 µM (active).

**Q.** What about the IC50 [5] of the same molecule?
**A.** Its IC50 is > 50 µM (active).

**Q.** And the AC50 [6]?
**A.** The AC50 was 4.54 µM (active).

**Q.** What about the AC50 [9] of the same molecule?
**A.** The AC50 was 2.97 µM (active).

**Q.** And the AC50 [10]?
**A.** The AC50 was 17.3 µM (active).

**Q.** And the AC50 [11]?
**A.** Its AC50 is 8.34 µM (active).

**Q.** What about the AC50 [12] of the same molecule?
**A.** The AC50 was 3.28 µM (active).

**Q.** And the AC50 [13]?
**A.** Its AC50 is 6.08 µM (active).

**Q.** What about the AC50 [14] of the same molecule?
**A.** The AC50 was 15.5 µM (active).

**Q.** For `COC(=O)c1[nH]c2cc(OC)ccc2c1NC(=O)c1ccc2c(c1)OCO2`, which AC50 [1] is on record?
**A.** The AC50 was 17.8 µM (active).

**Q.** Which EC50 [15] does the source give for `CCNC(=O)c1c(NC(=O)c2cc(-c3cc(C)ccc3O)[nH]n2)sc2c1CCCC2` here?
**A.** Its EC50 is 2.5 µM (active).

**Q.** What about the EC50 [16] of the same molecule?
**A.** Its EC50 is 11.3 µM (active).

**Q.** And the EC50 [17]?
**A.** The EC50 was 15 µM (active).

**Q.** What about the EC50 [18] of the same molecule?
**A.** The EC50 was 7.09 µM (active).

**Q.** What about the AC50 [19] of the same molecule?
**A.** Its AC50 is 5.2 µM (active).

**Q.** And the “Absolute IC50 (XBP1)” value [20]?
**A.** The value was 10 µM.

**Q.** With `CC(/C=C/c1ccco1)=NNC(=O)c1cc(C)[nH]n1` as the molecule, how does the IC50 [21] read?
**A.** The IC50 was > 56.8 µM (inactive).
